This test addresses T1, Chymotrypsin-C (Homo sapiens, UniProt Q99895).
T1 sequence (Q99895 whole entry): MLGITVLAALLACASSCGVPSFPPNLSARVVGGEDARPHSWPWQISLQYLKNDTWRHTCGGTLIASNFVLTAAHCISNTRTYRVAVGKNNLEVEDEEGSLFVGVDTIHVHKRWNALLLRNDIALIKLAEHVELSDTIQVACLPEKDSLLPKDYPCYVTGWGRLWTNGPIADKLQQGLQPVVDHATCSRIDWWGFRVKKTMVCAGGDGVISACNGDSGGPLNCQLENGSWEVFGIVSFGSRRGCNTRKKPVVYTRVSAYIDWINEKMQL
Description: ChEBML_197813. The source says: Inhibitory activity against Serine protease chymotrypsin

The values that follow come from BindingDB's records for doi:10.1016/s0960-894x(00)00610-7 (Institute of Molecular and Cell Biology, 2001).

Structures are written as SMILES.

Regarding `C=C(c1cccc(OC(=O)N[C@@H](CC(C)C)C(=O)N(CCN(Cc2ccc(C(=O)OC)cc2)Cc2ccc(C(=O)OC)cc2)Cc2ccc(Cl)cc2)c1)c1sc(=S)n(CC(=O)OCC)c1O` [4-{[(2-{(4-Chloro-benzyl)-[2-(3-{1-[3-ethoxycarbonylmethyl-4-oxo-2-thioxo-thiazolidin-(5Z)-ylidene]-ethyl}-phenoxycarbonylamino)-4-methyl-pentanoyl]-amino}-ethyl)-amino-methyl]di-benzoic acid methyl ester], the midpoint of inhibition, the IC50, lay at 210 µM.
